Our source for the IC50 values is patent US11542233B2, “Compounds, compositions and methods of use” (Aquinnah Pharmaceuticals, Inc., priority 2016, dated 2023).

A value given as a limit tells only on which side of the number the result lay.

The test deals with TDP-43 aggregation in PC12 cells stably expressing GFP-tagged mutant TDP-43 (TDP-43^Q33IK::eGFP). In words: In vitro efficacy assay: inhibition of TDP-43 inclusions, concentration-response, fluorescence microscopy. The settings on record: Rattus norvegicus, PC-12, PC12 cells, 1 hour pre-treatment, 15 μM sodium arsenite for 23 hours, 10-point dose response curve. It counts as cell-based. The method, then:
Exemplary compounds of the invention were evaluated for efficacy in inhibiting TDP-43 inclusions using a concentration-response assay. Briefly, PC12 cells stably expressing a GFP-tagged mutant form of TDP-43 (TDP-43^Q33IK::eGFP) were pre-treated for 1 hour with exemplary compounds and stressed with 15 μM sodium arsenite for 23 hours to induce TDP-43 aggregation. The inhibitory effect on TDP-43 aggregation was measured using fluorescence microscopy. The ratio of cells with TDP-43 aggregates was calculated based on the total number of cells with detectable GFP expression. In the table, “A” indicates an IC50 of less than 100 nM, “B” indicates an IC50 range from 100 nM to 500 nM; “C” indicates an IC50 range from 500 nM to 2 μM; and “D” indicates an IC50 greater than 2 μM.
A word on the IC50: it is the concentration that inhibits the measured activity by half. On to `CCN(C(=O)c1cc2ncccc2[nH]1)[C@H]1CCC[C@@H](NCc2ccc3ncoc3c2)C1` [Compound 441], for which the IC50 was less than 100 nM.
Next, `CCN(C(=O)c1cc2ncccc2[nH]1)[C@H]1CCC[C@@H](NCc2ccc3nsnc3c2)C1` [Compound 442]: less than 100 nM; `CCN(C(=O)c1cc2ncccc2[nH]1)[C@H]1CCC[C@@H](NCc2ccc3ocnc3c2)C1` [Compound 443]: less than 100 nM.
Regarding `CCN(C(=O)c1cc2ncccc2[nH]1)[C@H]1CCC[C@@H](NCc2cc3ccccc3o2)C1` [Compound 444], the concentration for half-maximal inhibition (IC50) was less than 100 nM.
On to `CCN(C(=O)c1cc2ncccc2[nH]1)[C@H]1CCC[C@@H](NCc2cc(C)on2)C1` [Compound 445], for which the IC50 fell in the range of 100 to 500 nM.
Consider `CCN(C(=O)c1cc2ncccc2[nH]1)[C@H]1CCC[C@@H](NCc2nccs2)C1` [Compound 446], for which the IC50 was in the range of 500 to 2000 nM.
As for `CCN(C(=O)c1cc2ncccc2[nH]1)[C@H]1CCC[C@@H](NCc2c[nH]cn2)C1` [Compound 447], the IC50 was 100 to 500 nM.
For `CCN(C(=O)c1cc2ncccc2[nH]1)[C@H]1CCC[C@@H](NCc2cnn(C)c2)C1` [Compound 448], the IC50 was less than 100 nM.
On to `CCN(C(=O)c1cc2ccccc2[nH]1)[C@H]1CCC[C@@H](NCc2oc3ccccc3c2C)C1` [Compound 449], for which the IC50 is less than 100 nM.
Take `CCN(C(=O)c1cc2ccccc2[nH]1)[C@H]1CCC[C@@H](NCc2cc3ccccc3s2)C1` [Compound 450]: the IC50 was less than 100 nM.
Take `CCN(C(=O)c1cc2ccccc2[nH]1)[C@H]1CCC[C@@H](NCc2nc3ccccc3s2)C1` [Compound 451]: the IC50 was 100 to 500 nM.
Next, `CCN(C(=O)c1cc2ccccc2[nH]1)[C@H]1CCC[C@@H](NCc2ccnc(O)c2)C1` [Compound 452]: greater than 2000 nM; `CCN(C(=O)c1cc2ccccc2[nH]1)[C@H]1CCC[C@@H](NCc2cnoc2)C1` [Compound 453]: 100 to 500 nM.
As to `CCN(C(=O)c1cc2ccccc2[nH]1)[C@H]1CCC[C@@H](NCc2nnc(C)s2)C1` [Compound 454], the 50% inhibitory concentration (IC50) is less than 100 nM.
Turning to `CCN(C(=O)c1cc2ccccc2[nH]1)[C@H]1CCC[C@@H](NCc2cc(C3CC3)no2)C1` [Compound 455], the IC50 is less than 100 nM.
In the case of `CCN(C(=O)c1cc2ccccc2[nH]1)[C@H]1CCC[C@@H](NCc2conc2C2CC2)C1` [Compound 456], the IC50 was less than 100 nM.
Next, `CCN(C(=O)c1cc2ccccc2[nH]1)[C@H]1CCC[C@@H](NCc2ccnc(OC)c2)C1` [Compound 457]: less than 100 nM.
Turning to `CCN(C(=O)c1cc2ccccc2[nH]1)[C@H]1CCC[C@@H](NCc2cc(C)no2)C1` [Compound 458], the IC50 was in the range of 100 to 500 nM.
Next, `CCN(C(=O)c1cc2ccccc2[nH]1)[C@H]1CCC[C@@H](NCc2ccc3ocnc3c2)C1` [Compound 459]: less than 100 nM; `CCN(C(=O)c1cc2ccccc2[nH]1)[C@H]1CCC[C@@H](NCc2cc(C3CC3)on2)C1` [Compound 460]: less than 100 nM; `CCN(C(=O)c1cc2ccccc2[nH]1)[C@H]1CCC[C@@H](NCc2cnn(C)c2)C1` [Compound 461]: 500 to 2000 nM.
`CCN(C(=O)c1cc2ccccc2[nH]1)[C@H]1CCC[C@@H](NCc2cc(C)on2)C1` [Compound 462]: the IC50 is less than 100 nM.
The result for `C#CCOc1ccc(C(=O)c2ccc(CN[C@@H]3CCC[C@H](N(CC)C(=O)c4cc5ncccc5[nH]4)C3)cc2)cc1` [Compound 463, N-ethyl-N-((1S,3R)-3-((4-(4-(prop-2-yn-1-yloxy)benzoyl)benzyl)amino)cyclohexyl)-1H-pyrrolo[3,2-b]pyridine-2-carboxamide] reads less than 100 nM; that for `CCN(C(=O)c1cc2ccccc2[nH]1)[C@H]1CCC[C@@H](NCc2ccc3ncoc3c2)C1` [Compound 464, N-((1S,3R)-3-((benzo[d]oxazol-6-ylmethyl)amino)cyclohexyl)-N-ethyl-1H-indole-2-carboxamide], less than 100 nM.
Take `CCN(C(=O)c1cc2ccccc2[nH]1)[C@H]1CCC[C@@H](NCc2nccs2)C1` [Compound 465, N-ethyl-N-((1S,3R)-3-((thiazol-2-ylmethyl)amino)cyclohexyl)-1H-indole-2-carboxamide]: the IC50 was in the range of 500 to 2000 nM.
The result for `CCN(C(=O)c1cc2ccccc2[nH]1)[C@H]1CCC[C@@H](NCc2c[nH]cn2)C1` [Compound 466] reads greater than 2000 nM; that for `CCN(C(=O)c1cc2ccccc2[nH]1)[C@H]1CCC[C@@H](NCc2nnc(C3CC3)s2)C1` [Compound 467, N-((1S,3R)-3-(((5-cyclopropyl-1,3,4-thiadiazol-2-yl)methyl)amino)cyclohexyl)-N-ethyl-1H-indole-2-carboxamide], less than 100 nM; that for `CCN(C(=O)c1cc2ncccc2[nH]1)[C@H]1CCC[C@@H](NCc2nnc(C)o2)C1` [Compound 468, N-ethyl-N-((1S,3R)-3-(((5-methyl-1,3,4-oxadiazol-2-yl)methyl)amino)cyclohexyl)-1H-pyrrolo[3,2-b]pyridine-2-carboxamide], 500 to 2000 nM.
Take `CCN(C(=O)c1cc2ccccc2[nH]1)[C@H]1CCC[C@@H](NCc2nnc(C)o2)C1` [Compound 469]: the concentration for half-maximal inhibition (IC50) was in the range of 100 to 500 nM.
On to `CCN(C(=O)c1cc2ncccc2[nH]1)[C@H]1CCC[C@@H](NCc2cc(C(C)C)no2)C1` [Compound 470], for which the IC50 was less than 100 nM.
Turning to `CCN(C(=O)c1cc2ccccc2[nH]1)[C@H]1CCC[C@@H](NCc2cc(C(C)C)no2)C1` [Compound 471], the IC50 was less than 100 nM.
Next, `CCN(C(=O)c1nc2ccccc2[nH]1)[C@H]1CCC[C@@H](NCc2cccc(OC(F)(F)F)c2)C1` [Compound 472]: less than 100 nM; `CCN(C(=O)c1nc2ccccc2[nH]1)[C@H]1CCC[C@@H](NCc2ccc(OC(F)(F)F)cc2)C1` [Compound 473]: less than 100 nM; `CCN(C(=O)c1nc2ccccc2[nH]1)[C@H]1CCC[C@@H](NCc2ccc3nccn3c2)C1` [Compound 474]: 100 to 500 nM.
For `CCN(C(=O)c1nc2ccccc2[nH]1)[C@H]1CCC[C@@H](NCc2ccc(F)cc2)C1` [Compound 475], the half-inhibitory concentration (IC50) was less than 100 nM.
As to `CCN(C(=O)c1nc2ccccc2[nH]1)[C@H]1CCC[C@@H](NCc2oc3ccccc3c2C)C1` [Compound 476], the IC50 is less than 100 nM.
The result for `CCN(C(=O)c1nc2ccccc2[nH]1)[C@H]1CCC[C@@H](NCc2cccc(OC)c2)C1` [Compound 477] reads less than 100 nM; that for `CCN(C(=O)c1nc2ccccc2[nH]1)[C@H]1CCC[C@@H](NCc2cc3cc(F)ccc3o2)C1` [Compound 478], less than 100 nM; that for `CCN(C(=O)c1nc2ccccc2[nH]1)[C@H]1CCC[C@@H](NCc2cc3ccccc3o2)C1` [Compound 479], less than 100 nM.
`CCN(C(=O)c1nc2ccccc2[nH]1)[C@H]1CCC[C@@H](NCc2cccc(F)c2)C1` [Compound 480]: the IC50 is less than 100 nM.
Turning to `CCN(C(=O)c1nc2c(C#N)cccc2[nH]1)[C@H]1CCC[C@@H](NCc2ccccc2)C1` [Compound 481, N-((1S,3R)-3-(benzylamino)cyclohexyl)-4-cyano-N-ethyl-1H-benzo[d]imidazole-2-carboxamide], the IC50 is less than 100 nM.
For the compound `CCN(C(=O)c1nc2c(F)cccc2[nH]1)[C@H]1CCC[C@@H](NCc2ccccc2)C1` [Compound 482], the IC50 was less than 100 nM.
`CCN(C(=O)c1nc2cc(F)ccc2[nH]1)[C@H]1CCC[C@@H](NCc2ccccc2)C1` [Compound 483]: the IC50 was less than 100 nM.
